The numbers were not newly measured in patent US20200277251A1, “NOVEL ANTIBACTERIAL COMPOUNDS AND METHODS OF MAKING AND USING SAME” (BROWN UNIVERSITY, priority 2017, published 2020), which cites them from elsewhere.

Molecules are shown by their SMILES.

The test system of this data set is LT. The settings on record: purified autolysin; cited from earlier work.

Turning to `CC1=N[C@@H]2[C@@H](O)[C@H](O)[C@@H](CO)O[C@@H]2S1` [NAG-thiazoline], the “binding to LT” value is “weak binder”.
